The target in the test is T1, Solute carrier family 22 member 2 (Rattus norvegicus, UniProt Q9R0W2).
T1 sequence (Q9R0W2 whole entry): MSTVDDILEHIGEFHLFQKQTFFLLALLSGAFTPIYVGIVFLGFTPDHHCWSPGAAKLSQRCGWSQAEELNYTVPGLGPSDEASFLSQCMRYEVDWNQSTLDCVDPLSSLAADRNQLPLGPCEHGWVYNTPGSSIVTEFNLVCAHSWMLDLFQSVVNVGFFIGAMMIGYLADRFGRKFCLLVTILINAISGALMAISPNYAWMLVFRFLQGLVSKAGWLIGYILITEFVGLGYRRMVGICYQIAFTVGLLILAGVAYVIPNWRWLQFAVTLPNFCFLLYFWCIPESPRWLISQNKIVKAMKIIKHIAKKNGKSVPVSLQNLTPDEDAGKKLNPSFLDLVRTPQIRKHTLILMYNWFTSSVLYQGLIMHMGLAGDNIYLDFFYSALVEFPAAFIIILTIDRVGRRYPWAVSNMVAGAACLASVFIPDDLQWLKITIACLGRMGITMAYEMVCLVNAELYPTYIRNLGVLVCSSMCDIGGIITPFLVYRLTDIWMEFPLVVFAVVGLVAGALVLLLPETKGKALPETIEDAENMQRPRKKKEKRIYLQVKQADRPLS
Put plainly: TP_TRANSPORTER: inhibition of TEA uptake (apical to cell) in OCT2-expressing NIH3T3 cells.

Each structure is given as a SMILES string.

For orientation: Ki means a measure of affinity in units of concentration, obtained from inhibition or displacement. Lower therefore signals higher affinity. The molecule `[NH2][Pt]([NH2])([Cl])[Cl]` [cis-Platinum diamminedichloride] had a Ki of 925 µM.

(Values after BindingDB's records for doi:10.1093/toxsci/47.2.181 (University of Texas M. D. Anderson Cancer Center, 1999).)
